Here are results for one compound from ChEMBL document CHEMBL3864184, “Optimization of Highly Kinase Selective Bis-anilino Pyrimidine PAK1 Inhibitors” (ACS Med Chem Lett, 2016).

In test [1] the target is T1, Protein kinase C theta type (Homo sapiens, UniProt Q04759). Kind of test: Inhibition of C-terminal 6His-tagged recombinant full length human PKCtheta expressed in fall armyworm Sf21 cells.
Target sequence in this assay (Q04759 whole entry): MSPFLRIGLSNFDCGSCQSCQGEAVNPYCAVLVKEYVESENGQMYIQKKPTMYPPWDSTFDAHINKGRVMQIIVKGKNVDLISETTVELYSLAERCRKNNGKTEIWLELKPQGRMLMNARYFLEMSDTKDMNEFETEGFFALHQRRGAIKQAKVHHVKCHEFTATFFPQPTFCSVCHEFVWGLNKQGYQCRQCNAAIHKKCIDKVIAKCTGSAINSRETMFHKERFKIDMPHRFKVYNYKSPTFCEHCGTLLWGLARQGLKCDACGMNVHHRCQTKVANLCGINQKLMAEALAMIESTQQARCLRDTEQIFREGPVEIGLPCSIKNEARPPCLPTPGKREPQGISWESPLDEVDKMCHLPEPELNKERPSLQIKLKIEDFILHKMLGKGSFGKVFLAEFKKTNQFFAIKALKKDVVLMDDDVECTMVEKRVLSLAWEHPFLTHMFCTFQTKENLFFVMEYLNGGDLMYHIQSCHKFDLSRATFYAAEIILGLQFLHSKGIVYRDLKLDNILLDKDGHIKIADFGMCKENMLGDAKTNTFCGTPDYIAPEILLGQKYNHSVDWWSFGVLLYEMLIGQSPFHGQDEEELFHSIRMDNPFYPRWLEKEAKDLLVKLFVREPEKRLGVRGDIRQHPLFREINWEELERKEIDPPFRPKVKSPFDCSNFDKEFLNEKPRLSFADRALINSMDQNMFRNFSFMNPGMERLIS
The target of test [2] is T2, Alpha-1B adrenergic receptor (Homo sapiens) (UniProt P35368).
T2 sequence (whole entry): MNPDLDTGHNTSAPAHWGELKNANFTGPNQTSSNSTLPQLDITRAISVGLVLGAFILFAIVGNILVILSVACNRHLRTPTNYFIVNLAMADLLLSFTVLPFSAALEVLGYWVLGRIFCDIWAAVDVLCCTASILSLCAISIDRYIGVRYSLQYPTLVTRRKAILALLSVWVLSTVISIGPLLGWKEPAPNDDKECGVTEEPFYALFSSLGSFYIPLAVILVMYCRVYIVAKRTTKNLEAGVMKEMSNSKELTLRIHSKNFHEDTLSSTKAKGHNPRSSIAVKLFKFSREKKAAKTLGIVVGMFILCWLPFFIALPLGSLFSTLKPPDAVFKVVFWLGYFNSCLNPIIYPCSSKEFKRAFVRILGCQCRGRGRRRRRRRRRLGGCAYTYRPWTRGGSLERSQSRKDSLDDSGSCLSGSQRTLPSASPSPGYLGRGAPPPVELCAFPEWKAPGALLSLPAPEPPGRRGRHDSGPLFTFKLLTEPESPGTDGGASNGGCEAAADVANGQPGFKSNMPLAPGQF
The experiment in a line: Activity at alpha-1B adrenergic receptor (unknown origin) at <1 uM.

Test [3] has as its target T3, Tyrosine-protein kinase Lck (Homo sapiens, UniProt P06239). The following applies: Sf21, 100 nM.
Target sequence in this assay (P06239 2-509 limits assumed): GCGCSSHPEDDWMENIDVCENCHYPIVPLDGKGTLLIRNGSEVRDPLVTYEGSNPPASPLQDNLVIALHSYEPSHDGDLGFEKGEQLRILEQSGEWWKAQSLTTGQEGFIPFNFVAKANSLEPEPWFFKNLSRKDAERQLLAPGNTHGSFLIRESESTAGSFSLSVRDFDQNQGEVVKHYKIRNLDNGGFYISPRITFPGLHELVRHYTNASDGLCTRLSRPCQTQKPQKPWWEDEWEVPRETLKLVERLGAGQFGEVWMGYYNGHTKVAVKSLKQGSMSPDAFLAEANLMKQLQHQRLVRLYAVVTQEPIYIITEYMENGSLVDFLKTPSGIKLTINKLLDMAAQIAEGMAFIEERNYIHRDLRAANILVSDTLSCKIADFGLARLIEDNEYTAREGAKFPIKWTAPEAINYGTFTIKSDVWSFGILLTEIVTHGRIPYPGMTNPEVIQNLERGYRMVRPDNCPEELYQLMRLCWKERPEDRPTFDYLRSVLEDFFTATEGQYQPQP
Description: Inhibition of N-terminal 6His-tagged full length recombinant human LCK expressed in baculovirus infected Sf21 cells at 100 nM
Test [4] has as its target Tyrosine-protein kinase Lyn (Homo sapiens, UniProt P07948). Kind of test: Inhibition of N-terminal his6-tagged recombinant full-length human LYN expressed in baculovirus infected Sf21 cells at 100 nM.
Test [5] has as its target T3, Tyrosine-protein kinase Lck. Kind of test: Inhibition of N-terminal 6His-tagged full length recombinant human LCK expressed in baculovirus expression system.
Target sequence in this assay (P06239 whole entry): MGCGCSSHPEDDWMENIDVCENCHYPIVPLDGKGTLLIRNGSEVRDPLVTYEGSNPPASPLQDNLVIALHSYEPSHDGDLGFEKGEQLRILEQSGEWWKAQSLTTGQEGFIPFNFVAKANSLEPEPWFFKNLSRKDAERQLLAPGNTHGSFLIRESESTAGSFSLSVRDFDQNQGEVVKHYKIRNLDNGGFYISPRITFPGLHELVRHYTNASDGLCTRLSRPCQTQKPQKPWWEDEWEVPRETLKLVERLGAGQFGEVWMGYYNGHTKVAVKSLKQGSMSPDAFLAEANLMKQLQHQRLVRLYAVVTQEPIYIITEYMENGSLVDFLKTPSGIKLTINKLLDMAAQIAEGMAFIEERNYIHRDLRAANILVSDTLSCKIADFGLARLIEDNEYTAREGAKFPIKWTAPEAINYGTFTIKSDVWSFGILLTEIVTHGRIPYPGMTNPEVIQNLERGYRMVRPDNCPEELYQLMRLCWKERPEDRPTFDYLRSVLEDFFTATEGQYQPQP
For test [6], the target named is T1, Protein kinase C theta type. Kind of test: Inhibition of human PKCtheta at 100 nM.
Target sequence in this assay (Q04759 whole entry, looked up): as the sequence (Q04759 whole entry) above
The target of test [7] is Tyrosine-protein kinase Yes (Homo sapiens, UniProt P07947). The note with it: 100 nM.
Description: Inhibition of N-terminal 6His-tagged full length recombinant human YES expressed in baculovirus expression system at 100 nM
Test [8] addresses T4, Muscarinic acetylcholine receptor M5 (Homo sapiens) (UniProt P08912).
T4 sequence (whole entry): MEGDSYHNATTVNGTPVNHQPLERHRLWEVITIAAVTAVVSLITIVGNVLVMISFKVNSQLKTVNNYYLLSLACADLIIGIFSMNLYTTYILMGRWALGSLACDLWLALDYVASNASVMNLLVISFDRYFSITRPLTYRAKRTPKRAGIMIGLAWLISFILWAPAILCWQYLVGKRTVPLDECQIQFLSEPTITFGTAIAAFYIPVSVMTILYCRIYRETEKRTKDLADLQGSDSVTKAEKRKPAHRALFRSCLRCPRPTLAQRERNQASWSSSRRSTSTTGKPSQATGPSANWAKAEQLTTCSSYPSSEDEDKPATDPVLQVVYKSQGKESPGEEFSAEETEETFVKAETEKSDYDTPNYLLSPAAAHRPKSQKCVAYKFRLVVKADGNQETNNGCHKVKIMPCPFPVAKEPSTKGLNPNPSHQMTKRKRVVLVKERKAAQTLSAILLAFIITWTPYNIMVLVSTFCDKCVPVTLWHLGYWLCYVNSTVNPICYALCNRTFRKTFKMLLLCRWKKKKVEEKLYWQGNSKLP
Kind of test: Activity at muscarinic acetylcholine receptor M5 (unknown origin) at <1 uM.

Active and inactive are the calls of the source. The rule behind the calls is not given here.

Sequence of Tyrosine-protein kinase Yes (P07947 2-543 limits assumed): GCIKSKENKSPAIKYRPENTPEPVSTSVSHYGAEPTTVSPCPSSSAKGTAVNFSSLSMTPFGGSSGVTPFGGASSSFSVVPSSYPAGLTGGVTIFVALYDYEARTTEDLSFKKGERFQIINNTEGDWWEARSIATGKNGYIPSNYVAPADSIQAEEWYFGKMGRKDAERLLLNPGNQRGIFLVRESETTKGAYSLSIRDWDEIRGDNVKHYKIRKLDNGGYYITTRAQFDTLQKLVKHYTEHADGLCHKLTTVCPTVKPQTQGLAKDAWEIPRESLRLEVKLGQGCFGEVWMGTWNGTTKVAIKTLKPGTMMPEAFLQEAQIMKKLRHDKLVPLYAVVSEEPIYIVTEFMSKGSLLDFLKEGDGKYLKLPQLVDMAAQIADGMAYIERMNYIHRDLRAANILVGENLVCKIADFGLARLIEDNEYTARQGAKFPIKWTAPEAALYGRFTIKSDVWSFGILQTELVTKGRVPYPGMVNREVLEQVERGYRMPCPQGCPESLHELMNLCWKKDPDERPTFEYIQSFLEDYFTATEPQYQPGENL
Sequence of Tyrosine-protein kinase Lyn (P07948 2-512 limits assumed): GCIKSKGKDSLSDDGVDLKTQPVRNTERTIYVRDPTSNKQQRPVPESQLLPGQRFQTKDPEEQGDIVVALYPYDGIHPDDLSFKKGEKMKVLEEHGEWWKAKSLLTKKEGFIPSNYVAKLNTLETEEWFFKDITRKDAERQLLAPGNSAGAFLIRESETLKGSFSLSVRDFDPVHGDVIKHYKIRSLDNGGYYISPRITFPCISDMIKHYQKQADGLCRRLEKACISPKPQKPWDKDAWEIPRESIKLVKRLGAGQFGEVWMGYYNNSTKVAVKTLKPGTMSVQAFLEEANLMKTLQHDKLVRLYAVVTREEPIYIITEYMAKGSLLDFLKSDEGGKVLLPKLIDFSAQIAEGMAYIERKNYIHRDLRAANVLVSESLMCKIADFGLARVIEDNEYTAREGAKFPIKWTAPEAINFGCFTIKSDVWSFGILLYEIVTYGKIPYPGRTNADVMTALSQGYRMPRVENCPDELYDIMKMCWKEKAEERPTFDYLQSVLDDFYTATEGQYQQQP

As to `CCS(=O)(=O)c1cc(Nc2ncc(F)c(N(Cc3ccccc3C#N)c3cc(CO)ccc3C)n2)ccc1N1CCN(C)CC1`, the figures for the IC50 in test [1] and in test [5] were 7 nM and 36 nM, respectively. Moreover, the result in test [2] and in test [8] was Active. The inhibition turned out to be 83% in test [3], 91% in test [4], 91% in test [6] and 95% in test [7].

By IC50 is commonly meant the concentration that inhibits the measured activity by half. The inhibition is the change of the read-out against control, counted positive when it falls.
